Results from US12018059B2, “Human amylin analog polypeptides and methods of use” (Intarcia Therapeutics, Inc., priority 2018, dated 2024).
Starred links: 1 amine or outer side, 2 acyl side, 3 side chain; linkers in the order of their positions; H or OH if unused. Positions of bridges follow the written chain, without caps; N, C: chain ends. Residues, ends and D or L forms follow the SMILES beside them. Groups on a side chain read outwards from the residue. *: point of attachment. X3 = O=C(O)CCCCCCCCCCCCCCCCCCC(=O)N[C@@H](CCC(=O)NCOCCOCC(=O)NCOCCOCC(=O)*)C(=O)O; C20 diacid = O=C(O)CCCCCCCCCCCCCCCCCCC(=O)*; C18 diacid = O=C(O)CCCCCCCCCCCCCCCCC(=O)*; C17 diacid = O=C(O)CCCCCCCCCCCCCCCC(=O)*; C16 diacid = O=C(O)CCCCCCCCCCCCCCC(=O)*; γGlu = O=C(O)[C@H](CCC(=O)[*:2])N[*:1]; C12 diacid = O=C(O)CCCCCCCCCCC(=O)*

Assay: in vivo
Design: species or system Sprague-Dawley rats
Conditions: rat, iv, 0.033 mg/kg
Procedure, shortened: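 Peptide plasma levels measured by UPLC-MS/MS (C18, product-ion monitoring) after protein precipitation or WCX SPE, calibrated in K2EDTA/protease-inhibitor rat plasma. Dosing in non-fasted male Sprague-Dawley rats (n=3): 0.033 mg/kg over 1 h by IV or SC infusion, or 0.3 mg/kg SC bolus; sampling up to 48 h.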

Row | SMILES | Vd | clearance | half-life | Vd (male, Sprague-Dawley) | clearance (male, Sprague-Dawley) | half-life (male, Sprague-Dawley)
1 | CC[C@H](C)[C@H](NC(=O)[C@@H]1CCCN1C(=O)CNC(=O)[C@H](Cc1ccccc1)NC(=O)[C@H](CC(N)=O)NC(=O)[C@H](CC(N)=O)NC(=O)[C@H](CO)NC(=O)[C@H](CO)NC(=O)[C@H](CCCCN)NC(=O)[C@H](Cc1c[nH]cn1)NC(=O)[C@H](CCCCNC(=O)CCCCCCCCCCC(=O)O)NC(=O)[C@H](CCC(=O)O)NC(=O)[C@H](CC(N)=O)NC(=O)[C@H](C)NC(=O)[C@H](CC(C)C)NC(=O)[C@H](CCCNC(=N)N)NC(=O)[C@H](CCC(N)=O)NC(=O)[C@@H](NC(=O)[C@H](C)NC(=O)[C@@H]1CSSC[C@H](NC(=O)[C@@H](N)CO)C(=O)N[C@@H](CC(N)=O)C(=O)N[C@@H]([C@@H](C)O)C(=O)N[C@@H](CO)C(=O)N[C@@H]([C@@H](C)O)C(=O)N1)[C@@H](C)O)C(=O)N[C@@H](CC(C)C)C(=O)N1CCC[C@H]1C(=O)N1CCC[C@H]1C(=O)N[C@H](C(=O)N[C@@H](CCCCN)C(=O)N[C@H](C(=O)NCC(=O)N[C@@H](CO)C(=O)N[C@@H](CCC(=O)O)C(=O)N[C@H](C(=O)N[C@@H](Cc1ccc(O)cc1)C(N)=O)[C@@H](C)O)C(C)C)[C@@H](C)O [Compound A74] (H-SCNTSTCATQRLANEK(C12 diacid)HKSSNNFGPILPPTKVGSETY-NH2; disulfide 2-7) | 0.331 L/kg | 12.2 mL/min/kg | 0.331 h | – | – | –
2 | CC[C@H](C)[C@H](NC(=O)[C@@H]1CCCN1C(=O)CNC(=O)[C@H](Cc1ccccc1)NC(=O)[C@H](CC(N)=O)NC(=O)[C@H](CC(N)=O)NC(=O)[C@H](CO)NC(=O)[C@H](CO)NC(=O)[C@H](CCCCN)NC(=O)[C@H](Cc1c[nH]cn1)NC(=O)[C@H](CCCCNC(=O)CCCCCCCCCCCCCCCCCCC(=O)O)NC(=O)[C@H](CCC(=O)O)NC(=O)[C@H](CC(N)=O)NC(=O)[C@H](C)NC(=O)[C@H](CC(C)C)NC(=O)[C@H](CCCNC(=N)N)NC(=O)[C@H](CCC(N)=O)NC(=O)[C@@H](NC(=O)[C@H](C)NC(=O)[C@@H]1CSSC[C@H](NC(=O)[C@@H](N)CO)C(=O)N[C@@H](CC(N)=O)C(=O)N[C@@H]([C@@H](C)O)C(=O)N[C@@H](CO)C(=O)N[C@@H]([C@@H](C)O)C(=O)N1)[C@@H](C)O)C(=O)N[C@@H](CC(C)C)C(=O)N1CCC[C@H]1C(=O)N1CCC[C@H]1C(=O)N[C@H](C(=O)N[C@@H](CCCCN)C(=O)N[C@H](C(=O)NCC(=O)N[C@@H](CO)C(=O)N[C@@H](CCC(=O)O)C(=O)N[C@H](C(=O)N[C@@H](Cc1ccc(O)cc1)C(N)=O)[C@@H](C)O)C(C)C)[C@@H](C)O [Compound A75] (H-SCNTSTCATQRLANEK(C20 diacid)HKSSNNFGPILPPTKVGSETY-NH2; disulfide 2-7; N-terminus assumed) | – | – | – | 0.121 L/kg | 0.0781 mL/min/kg | 24.1 h
3 | CC[C@H](C)[C@H](NC(=O)[C@@H]1CCCN1C(=O)CNC(=O)[C@H](Cc1ccccc1)NC(=O)[C@H](CC(N)=O)NC(=O)[C@H](CC(N)=O)NC(=O)[C@H](CO)NC(=O)[C@H](CO)NC(=O)[C@H](CCCCN)NC(=O)[C@H](Cc1c[nH]cn1)NC(=O)[C@H](CCCCNC(=O)CC[C@H](NC(=O)CCCCCCCCCCCCCCCCC(=O)O)C(=O)O)NC(=O)[C@H](CCC(=O)O)NC(=O)[C@H](CC(N)=O)NC(=O)[C@H](C)NC(=O)[C@H](CC(C)C)NC(=O)[C@H](CCCNC(=N)N)NC(=O)[C@H](CCC(N)=O)NC(=O)[C@@H](NC(=O)[C@H](C)NC(=O)[C@@H]1CSSC[C@H](NC(=O)[C@@H](N)CO)C(=O)N[C@@H](CC(N)=O)C(=O)N[C@@H]([C@@H](C)O)C(=O)N[C@@H](CO)C(=O)N[C@@H]([C@@H](C)O)C(=O)N1)[C@@H](C)O)C(=O)N[C@@H](CC(C)C)C(=O)N1CCC[C@H]1C(=O)N1CCC[C@H]1C(=O)N[C@H](C(=O)N[C@@H](CCCCN)C(=O)N[C@H](C(=O)NCC(=O)N[C@@H](CO)C(=O)N[C@@H](CCC(=O)O)C(=O)N[C@H](C(=O)N[C@@H](Cc1ccc(O)cc1)C(N)=O)[C@@H](C)O)C(C)C)[C@@H](C)O [Compound A76] (H-SCNTSTCATQRLANEK([γGlu-C18 diacid])HKSSNNFGPILPPTKVGSETY-NH2; disulfide 2-7; N-terminus assumed) | – | – | – | 0.176 L/kg | 0.105 mL/min/kg | 21.3 h
4 | CC[C@H](C)[C@H](NC(=O)[C@@H]1CCCN1C(=O)CNC(=O)[C@H](Cc1ccccc1)NC(=O)[C@H](CC(N)=O)NC(=O)[C@H](CC(N)=O)NC(=O)[C@H](CO)NC(=O)[C@H](CO)NC(=O)[C@H](CCCCN)NC(=O)[C@H](Cc1c[nH]cn1)NC(=O)[C@H](CCCCNC(=O)CCCCCCCCCCCCCCCC(=O)O)NC(=O)[C@H](CCC(=O)O)NC(=O)[C@H](CC(N)=O)NC(=O)[C@H](C)NC(=O)[C@H](CC(C)C)NC(=O)[C@H](CCCNC(=N)N)NC(=O)[C@H](CCC(N)=O)NC(=O)[C@@H](NC(=O)[C@H](C)NC(=O)[C@@H]1CSSC[C@H](NC(=O)[C@@H](N)CO)C(=O)N[C@@H](CC(N)=O)C(=O)N[C@@H]([C@@H](C)O)C(=O)N[C@@H](CO)C(=O)N[C@@H]([C@@H](C)O)C(=O)N1)[C@@H](C)O)C(=O)N[C@@H](CC(C)C)C(=O)N1CCC[C@H]1C(=O)N1CCC[C@H]1C(=O)N[C@H](C(=O)N[C@@H](CCCCN)C(=O)N[C@H](C(=O)NCC(=O)N[C@@H](CO)C(=O)N[C@@H](CCC(=O)O)C(=O)N[C@H](C(=O)N[C@@H](Cc1ccc(O)cc1)C(N)=O)[C@@H](C)O)C(C)C)[C@@H](C)O [Compound A79] (H-SCNTSTCATQRLANEK(C17 diacid)HKSSNNFGPILPPTKVGSETY-NH2; disulfide 2-7; N-terminus assumed) | – | – | – | 0.115 L/kg | 0.162 mL/min/kg | 7.8 h
5 | CC[C@H](C)[C@H](NC(=O)[C@@H]1CCCN1C(=O)CNC(=O)[C@H](Cc1ccccc1)NC(=O)[C@H](CC(N)=O)NC(=O)[C@H](CC(N)=O)NC(=O)[C@H](CO)NC(=O)[C@H](CO)NC(=O)[C@H](CCCCN)NC(=O)[C@H](Cc1c[nH]cn1)NC(=O)[C@H](CC(C)C)NC(=O)[C@H](CCCCNC(=O)CC[C@H](NC(=O)CC[C@H](NC(=O)CCCCCCCCCCCCCCC(=O)O)C(=O)O)C(=O)O)NC(=O)[C@H](CC(N)=O)NC(=O)[C@H](C)NC(=O)[C@H](CC(C)C)NC(=O)[C@H](CCCNC(=N)N)NC(=O)[C@H](CCC(N)=O)NC(=O)[C@@H](NC(=O)[C@H](C)NC(=O)[C@@H]1CSSC[C@H](NC(=O)[C@@H](N)CO)C(=O)N[C@@H](CC(N)=O)C(=O)N[C@@H]([C@@H](C)O)C(=O)N[C@@H](CO)C(=O)N[C@@H]([C@@H](C)O)C(=O)N1)[C@@H](C)O)C(=O)N[C@@H](CC(C)C)C(=O)N1CCC[C@H]1C(=O)N1CCC[C@H]1C(=O)N[C@H](C(=O)N[C@@H](CCCCN)C(=O)N[C@H](C(=O)NCC(=O)N[C@@H](CO)C(=O)N[C@@H](CCC(=O)O)C(=O)N[C@H](C(=O)N[C@@H](Cc1ccc(O)cc1)C(N)=O)[C@@H](C)O)C(C)C)[C@@H](C)O [Compound A82] (H-SCNTSTCATQRLANK([γGlu-γGlu-C16 diacid])LHKSSNNFGPILPPTKVGSETY-NH2; disulfide 2-7) | 0.152 L/kg | 0.667 mL/min/kg | 3.17 h | – | – | –
6 | CC[C@H](C)[C@H](NC(=O)[C@@H]1CCCN1C(=O)CNC(=O)[C@H](Cc1ccccc1)NC(=O)[C@H](CC(N)=O)NC(=O)[C@H](CC(N)=O)NC(=O)[C@H](CO)NC(=O)[C@H](CO)NC(=O)[C@H](CCCCN)NC(=O)[C@H](Cc1c[nH]cn1)NC(=O)[C@H](CC(C)C)NC(=O)[C@H](CCCCNC(=O)CCCCCCCCCCCCCCCCC(=O)O)NC(=O)[C@H](CC(N)=O)NC(=O)[C@H](C)NC(=O)[C@H](CC(C)C)NC(=O)[C@H](CCCNC(=N)N)NC(=O)[C@H](CCC(N)=O)NC(=O)[C@@H](NC(=O)[C@H](C)NC(=O)[C@@H]1CSSC[C@H](NC(=O)[C@@H](N)CO)C(=O)N[C@@H](CC(N)=O)C(=O)N[C@@H]([C@@H](C)O)C(=O)N[C@@H](CO)C(=O)N[C@@H]([C@@H](C)O)C(=O)N1)[C@@H](C)O)C(=O)N[C@@H](CC(C)C)C(=O)N1CCC[C@H]1C(=O)N1CCC[C@H]1C(=O)N[C@H](C(=O)N[C@@H](CCCCN)C(=O)N[C@H](C(=O)NCC(=O)N[C@@H](CO)C(=O)N[C@@H](CCC(=O)O)C(=O)N[C@H](C(=O)N[C@@H](Cc1ccc(O)cc1)C(N)=O)[C@@H](C)O)C(C)C)[C@@H](C)O [Compound A83] (H-SCNTSTCATQRLANK(C18 diacid)LHKSSNNFGPILPPTKVGSETY-NH2; disulfide 2-7) | 0.123 L/kg | 0.499 mL/min/kg | 4.06 h | – | – | –
7 | CC[C@H](C)[C@H](NC(=O)[C@@H]1CCCN1C(=O)CNC(=O)[C@H](Cc1ccccc1)NC(=O)[C@H](CC(N)=O)NC(=O)[C@H](CC(N)=O)NC(=O)[C@H](CO)NC(=O)[C@H](CO)NC(=O)[C@H](CCCCN)NC(=O)[C@H](Cc1c[nH]cn1)NC(=O)[C@H](CC(C)C)NC(=O)[C@H](CCCCNC(=O)CC[C@H](NC(=O)CC[C@H](NC(=O)COCCOCNC(=O)COCCOCNC(=O)CC[C@H](NC(=O)CCCCCCCCCCCCCCCCCCC(=O)O)C(=O)O)C(=O)O)C(=O)O)NC(=O)[C@H](Cc1ccc(O)cc1)NC(=O)[C@H](C)NC(=O)[C@H](CC(C)C)NC(=O)[C@H](CCCNC(=N)N)NC(=O)[C@H](CCC(N)=O)NC(=O)[C@@H](NC(=O)[C@H](C)NC(=O)[C@@H]1CSSC[C@H](NC(=O)[C@@H](N)CO)C(=O)N[C@@H](CC(N)=O)C(=O)N[C@@H]([C@@H](C)O)C(=O)N[C@@H](CO)C(=O)N[C@@H]([C@@H](C)O)C(=O)N1)[C@@H](C)O)C(=O)N[C@@H](CC(C)C)C(=O)N1CCC[C@H]1C(=O)N1CCC[C@H]1C(=O)N[C@H](C(=O)N[C@@H](CCCCN)C(=O)N[C@H](C(=O)NCC(=O)N[C@@H](CO)C(=O)N[C@@H](CCC(=O)O)C(=O)N[C@H](C(=O)N[C@@H](Cc1ccc(O)cc1)C(N)=O)[C@@H](C)O)C(C)C)[C@@H](C)O [Compound A85] (H-SCNTSTCATQRLAYK([γGlu-γGlu-X3])LHKSSNNFGPILPPTKVGSETY-NH2; disulfide 2-7; N-terminus assumed) | 0.146 L/kg | 0.0496 mL/min/kg | 36.7 h | – | – | –
